The values that follow come from US9274101B2 (BIOLOG, Inc., priority 2001, dated 2016).

One assay deals with HepG2 cells. The assay can be described thus: HepG2 cells on flat bottom plastic wells, energy sources at a range of concentrations. The class given is cell-based, human. To be noted: for activity at 30 µM / activity at 100 µM / activity at 330 µM / activity at 1000 µM / activity at 3300 µM / activity at 10000 µM / activity at 15000 µM / activity at 20000 µM: Homo sapiens, HepG2, 72 h, read-out: HepG2 Cells Responses After 72 hours in Culture and a 4 hour Color Development Period. How it is done: In this Example, methods for testing adherent cells for their ability to use multiple carbon sources are described. The human hepatocellular carcinoma cell line known as HepG2 (Knowles et al., Science, 209:497-499 [1980]) was chosen for this experiment. However, this application is not intended to be limited to the use of HepG2 cells, hepatocytes, carcinoma cells or even human cells.
HepG2 cells were grown in Falcon tissue culture flasks with vented tops. The culture medium used was Minimal Essential medium (MEM, Invitrogen 11095) with 1 g/L glucose, 2 mM L-glutamine, 2.2 g/L sodium bicarbonate, 10 mg/L phenol red, and supplemented with 0.1 mM Nonessential Amino Acids, 1 mM sodium pyruvate, 50 U/mL penicillin, 50 μg/mL streptomycin, and 10% (v/v) heat inactivated fetal bovine serum (HI FBS, Invitrogen 16140). The cells were seeded at 2×10^4/cm^2 and used 3 days after initiation of culture. During all incubations, the cells were kept in an atmosphere of 5% CO2, 90-100% humidity, and 37° C. Cells were harvested by trypsinization for 3 minutes in 0.25% trypsin-1 mM EDTA and resuspended in an equal volume of culture medium. A viable cell count was obtained by trypan blue exclusion and an appropriate volume of the cell suspension (to have 33% more viable cells than was sufficient for the experiment) was placed in a polypropylene centrifuge tube. Cells were pelleted by centrifugation at 350×g for 10 minutes at room temperature, resuspended in Dulbecco's Phosphate Buffered Saline (D-PBS, Invitrogen 14040) and centrifuged a second time. Cells were then resuspended to two-thirds the final volume needed in Dulbecco' ? s Modified Eagle's Medium (DME, Sigma D5030) containing 10% HI FBS and penicillin-streptomycin but without glucose, L-glutamine, sodium pyruvate, and phenol red. An aliquot was counted by trypan blue exclusion and the cell density was adjusted to 1.28×10^5/mL. Cells were plated in 100 μL/well in wells of standard, 96-well plates (4×10^4 cells/cm^2) and allowed to adhere overnight prior to addition of test chemicals.
For assay, the culture medium was aspirated, the wells were washed once with D-PBS and 170 μL of DME were added to each well, followed by 30 μL of the appropriate dilution of each test energy source. Stocks of 133 mM of each test chemical were prepared in tissue culture grade water, sterile filtered, and dilutions were prepared in a master plate so that, upon dilution into a regular 96-well MICROPLATE a total well volume of 200 μL, the final concentrations would be 0.033 to 20 mM. Negative control wells received 30 μL of tissue culture grade water. For each plate containing energy sources and cells, a second, control plate containing only energy sources was prepared. Plates were incubated at 5% CO2, 90-100% humidity, and 37° C. for 48 to 72 hours prior to addition of the MTS/PMS colorometric reagent (10 μL/well). The color formed in each well 4-24 hours after addition of the calorimetric reagent, was measured with a plate reader at 490 nm with a reference wavelength of 650 nm. OD values from the control plate were subtracted from the OD values obtained with cells prior to normalizing the data to % negative control (cells without added energy source).

Assay [1] concerns DMSO-differentiated HL-60 cells. The assay can be described thus: Energy use by DMSO-differentiated HL-60 cells. The class given is cell-based, human. To be noted: for activity at 30 µM / activity at 100 µM / activity at 330 µM / activity at 1000 µM / activity at 3300 µM / activity at 10000 µM / activity at 15000 µM / activity at 20000 µM: Homo sapiens, HL-60, 24 h, read-out: Energy Use by DMSO-Differentiated HL-60 Cells. How it is done: In this Example, methods for testing in vitro-differentiated cells for their ability to use multiple energy sources are described. Prior to differentiation, HL-60 cells were cultured as described in Example 27. DMSO-induced differentiation (Odani et al., Res. Commun. Mol. Pathol. Pharmacol. 108:381-391 [2000]; and Yamaguchi et al., Biol. Pharm. Bull. 20:943-947 [1997]) was accomplished by incubation of the cells in the presence of 1.25% DMSO for 3 days.
After washing, HL-60 cells were resuspended in DME-R. An aliquot of the cell suspension was counted by trypan blue exclusion and the cell density was adjusted to 6.67×10^5/mL. Fifty μL of DME-R were added to each well of the appropriate number of half area, 96-well plates, followed by 25 μL of the appropriate dilution of each test energy source. Stocks of 133 mM of each test chemical were prepared in tissue culture grade water, sterile filtered, and dilutions were prepared in a master plate so that, upon dilution into a half-area 96-well microtiter plate to a total well volume of 150 μL, the final concentrations would be 0.033 to 20 mM. Negative control wells received 25 μL of tissue culture grade water. The cells were plated at a volume of 75 μL/well, giving a final cell density of 5×10^4/well. For each plate containing energy sources and cells, a second, control plate containing only energy sources was prepared with the same total volume of liquid (148 μL/well). Plates were incubated at 5% CO2, 90-100% humidity, and 37° C. for 24 hours prior to addition of the MTS/MPMS calorimetric reagent (7.5 μL/well). The color formed in each well 24 hours after addition of the colorimetric reagent, was measured with a plate reader at 490 nm with a reference wavelength of 650 nm. OD values from the control plate were subtracted from the OD values obtained with cells prior to normalizing the data to % negative control (cells without added energy source).

Regarding `COC(=O)CCC(=O)O` [mono methyl succinate], the values for the activity at 30 µM (in the assay with HepG2 cells (Conc. 0.03 mM); in assay [1] (Conc. 0.03 mM)) were 144% and 104%, respectively. Further, the values for the activity at 100 µM (with HepG2 cells (Conc. 0.10 mM); in assay [1] (Conc. 0.10 mM)) were 161% and 93.4%, respectively. In addition, the activity at 330 µM stood at 179% with HepG2 cells (Conc. 0.33 mM) and 124% in assay [1] (Conc. 0.33 mM). Further, the activity at 1000 µM in the assay on HepG2 cells (Conc. 1.00 mM) was 180%; in assay [1] (Conc. 1.00 mM), 142%. Moreover, the activity at 3300 µM is 200% in the assay with HepG2 cells (Conc. 3.3 mM) and 184% in assay [1] (Conc. 3.3 mM). Moreover, the results for the activity at 10000 µM (in the assay on HepG2 cells (Conc. 10 mM); in assay [1] (Conc. 10 mM)) were 224% and 194%, respectively. In addition, the activity at 15000 µM in the assay with HepG2 cells (Conc. 15 mM) was 357%; in assay [1] (Conc. 15 mM), 156%. Besides, the activity at 20000 µM in the assay with HepG2 cells (Conc. 20 mM) turned out to be 238%; in assay [1] (Conc. 20 mM), 118%.
For `Cc1cn([C@H]2C[C@H](O)[C@@H](CO)O2)c(=O)[nH]c1=O` [Thymidine], the activity at 30 µM with HepG2 cells (Conc. 0.03 mM) was 115%; in assay [1] (Conc. 0.03 mM), 96%. Besides, the activity at 100 µM was determined as 158% in the assay with HepG2 cells (Conc. 0.10 mM) and 112% in assay [1] (Conc. 0.10 mM). Besides, the results for the activity at 330 µM (in the assay on HepG2 cells (Conc. 0.33 mM); in assay [1] (Conc. 0.33 mM)) were 180% and 143%, respectively. The activity at 1000 µM with HepG2 cells (Conc. 1.00 mM) was 150%; in assay [1] (Conc. 1.00 mM) it was 165%. Moreover, the activity at 3300 µM was 135% in the assay with HepG2 cells (Conc. 3.3 mM) and 173% in assay [1] (Conc. 3.3 mM). Besides, the activity at 10000 µM came to 114% in the assay on HepG2 cells (Conc. 10 mM) and 160% in assay [1] (Conc. 10 mM). Besides, the activity at 15000 µM in the assay on HepG2 cells (Conc. 15 mM) is 101%; in assay [1] (Conc. 15 mM), 160%. Also, the activity at 20000 µM in the assay on HepG2 cells (Conc. 20 mM) stood at 134%; in assay [1] (Conc. 20 mM) it was 103%. The “energy source use in words” value in assay [1] (DMSO-differentiated HL-60 cells) was “able to utilize thymidine at concentrations of 0.1-15 mM”.
As for `O=C(O)[C@@H]1C[C@@H](O)CN1` [hydroxy L-proline], the “HepG2 Cells Responses After 72 hours in Culture and a 4 hour Color Development Period” value (“HepG2 Cells Responses After 72 hours” below) in the assay with HepG2 cells (Conc. 0.03 mM) is reported as 97.0 % of negative control; in the assay on HepG2 cells (Conc. 0.10 mM), 139.9 % of negative control; in the assay with HepG2 cells (Conc. 0.33 mM), 162.2 % of negative control; in the assay with HepG2 cells (Conc. 1.00 mM), 140.5 % of negative control; in the assay on HepG2 cells (Conc. 3.3 mM), 126.8 % of negative control; in the assay on HepG2 cells (Conc. 10 mM), 123.1 % of negative control. In addition, the “HepG2 Cells Responses After 72 hours” value in the assay with HepG2 cells (Conc. 15 mM) is 101.3 % of negative control; in the assay with HepG2 cells (Conc. 20 mM), 62.8 % of negative control. For the same compound, the “Energy Use by DMSO-Differentiated HL-60 Cells” value in assay [1] (Conc. 0.03 mM) was 102.8 % of negative control; in assay [1] (Conc. 0.10 mM), 110.5 % of negative control; in assay [1] (Conc. 0.33 mM), 120.5 % of negative control; in assay [1] (Conc. 1.00 mM) it was 121.9 % of negative control; in assay [1] (Conc. 3.3 mM), 129.0 % of negative control; in assay [1] (Conc. 10 mM) it was 126.9 % of negative control. Moreover, the “Energy Use by DMSO-Differentiated HL-60 Cells” value in assay [1] (Conc. 15 mM) is on record as 109.0 % of negative control; in assay [1] (Conc. 20 mM), 92.0 % of negative control.
Regarding `O=C1O[C@@H]([C@H](O)CO)[C@H](O)[C@H]1O` [D-gal acid g-lactone], the “HepG2 Cells Responses After 72 hours” value in the assay on HepG2 cells (Conc. 0.03 mM) is 111.3 % of negative control; with HepG2 cells (Conc. 0.10 mM), 142.3 % of negative control; in the assay on HepG2 cells (Conc. 0.33 mM), 164.7 % of negative control; in the assay on HepG2 cells (Conc. 1.00 mM) it was 162.9 % of negative control; in the assay on HepG2 cells (Conc. 3.3 mM) it was 157.3 % of negative control; with HepG2 cells (Conc. 10 mM), 178.4 % of negative control. Further, the “HepG2 Cells Responses After 72 hours” value is reported as 239.3 % of negative control in the assay with HepG2 cells (Conc. 15 mM) and 207.6 % of negative control with HepG2 cells (Conc. 20 mM). For the same compound, the “Energy Use by DMSO-Differentiated HL-60 Cells” value is given as 111.9 % of negative control in assay [1] (Conc. 0.03 mM); 122.9 % of negative control in assay [1] (Conc. 0.10 mM); 133.3 % of negative control in assay [1] (Conc. 0.33 mM); 157.1 % of negative control in assay [1] (Conc. 1.00 mM); 185.9 % of negative control in assay [1] (Conc. 3.3 mM); 166.9 % of negative control in assay [1] (Conc. 10 mM). The “Energy Use by DMSO-Differentiated HL-60 Cells” value in assay [1] (Conc. 15 mM) is 130.4 % of negative control; in assay [1] (Conc. 20 mM), 99.2 % of negative control.
